Experimental data from BindingDB's records for doi:10.1016/j.bmcl.2008.07.123 (Bristol-Myers Squibb, 2008).
pIC50: −log10 of the molar value.

Assay: Antagonist activity at CCR2 in human PBMC assessed as MCP1-induced chemotaxis

CCCCN1CCC(NC(=O)c2ccc(SC)cc2)C(NC(=O)CNC(=O)c2cc(C(F)(F)F)ccc2N)C1 (racemic) [(+/-)-2-amino-N-(2-(1-butyl-4-(4-(methylthio)benzamido)piperidin-3-ylamino)-2-oxoethyl)-5-(trifluoromethyl)benzamide]
pIC50: 7.76

CCCCN1CCC(NCc2ccc(SC)cc2)C(NC(=O)CNC(=O)c2cc(C(F)(F)F)ccc2N)C1 (racemic) [(+/-)-2-amino-N-(2-(1-butyl-4-(4-(methylthio)benzylamino)piperidin-3-ylamino)-2-oxoethyl)-5-(trifluoromethyl)benzamide]
pIC50: 7.72

CSc1ccc(C(=O)NC2CCN(C)CC2NC(=O)CNC(=O)c2cc(C(F)(F)F)ccc2N)cc1 (racemic) [(+/-)-2-amino-N-(2-(1-methyl-4-(4-(methylthio)benzamido)piperidin-3-ylamino)-2-oxoethyl)-5-(trifluoromethyl)benzamide]
pIC50: 7.41

CSc1ccc(CNC2CCN(C)CC2NC(=O)CNC(=O)c2cc(C(F)(F)F)ccc2N)cc1 (racemic) [(+/-)-2-amino-N-(2-(1-methyl-4-(4-(methylthio)benzylamino)piperidin-3-ylamino)-2-oxoethyl)-5-(trifluoromethyl)benzamide]
pIC50: 7.56

CCCN1CCC(NCc2ccc(SC)cc2)C(NC(=O)CNC(=O)c2cc(C(F)(F)F)ccc2N)C1 (racemic) [(+/-)-2-amino-N-(2-(4-(4-(methylthio)benzylamino)-1-propylpiperidin-3-ylamino)-2-oxoethyl)-5-(trifluoromethyl)benzamide]
pIC50: 8.27

CSc1ccc(CNC2CCNCC2NC(=O)CNC(=O)c2cc(C(F)(F)F)ccc2N)cc1 (racemic) [(+/-)-2-amino-N-(2-(4-(4-(methylthio)benzylamino)piperidin-3-ylamino)-2-oxoethyl)-5-(trifluoromethyl)benzamide]
pIC50: 6.55

CCCN1CCC(NC(=O)c2ccc(SC)cc2)C(NC(=O)CNC(=O)c2cc(N)cc(C(F)(F)F)c2)C1 (racemic) [(+/-)-3-amino-N-(2-(4-(4-(methylthio)benzamido)-1-propylpiperidin-3-ylamino)-2-oxoethyl)-5-(trifluoromethyl)benzamide]
pIC50: 7.60

CCCN1CCC(NCc2ccc(SC)cc2)C(NC(=O)CNC(=O)c2cc(N)cc(C(F)(F)F)c2)C1 (racemic) [(+/-)-3-amino-N-(2-(4-(4-(methylthio)benzylamino)-1-propylpiperidin-3-ylamino)-2-oxoethyl)-5-(trifluoromethyl)benzamide]
pIC50: 7.59

CCCN1CCC(NCc2ccc(SC)cc2)C(NC(=O)CNC(=O)c2cc(C(F)(F)F)ccc2NC(=O)N2CCCC2)C1 (racemic) [(+/-)-N-(2-(2-(4-(4-(methylthio)benzylamino)-1-propylpiperidin-3-ylamino)-2-oxoethylcarbamoyl)-4-(trifluoromethyl)phenyl)pyrrolidine-1-carboxamide]
pIC50: 8.32

CCCN1CCC(NCc2ccc(SC)cc2)C(NC(=O)CNC(=O)c2cc(C(F)(F)F)ccc2NC(=O)NC)C1 (racemic) [(+/-)-N-(2-(4-(4-(methylthio)benzylamino)-1-propylpiperidin-3-ylamino)-2-oxoethyl)-2-(3-methylureido)-5-(trifluoromethyl)benzamide]
pIC50: 8.10
